Emax and EC50 data for 34 molecules are collected here from patent US20260200926A1, “TREM2 MODULATORS” (Muna Therapeutics ApS, priority 2022, published 2026).

Like-named read-outs stand apart in the source and are kept apart here.

For the test, the target named is T1, Human TREM2 (Homo sapiens, UniProt Q9NZC2).
T1 construct: expressed in transfected cells
The test can be described thus: Human TREM2 activity: cellular phosphorylation of Syk (AlphaLISA SureFire Ultra p-SYK) in HEK293/DAP12+TREM2 stable cell line. Conditions: for EC50: phospho-Syk AlphaLISA signal, HEK293/DAP12+TREM2 cells, concentration giving 50% of maximal response, read-out: EC50. In kind it is cell-based. The gist of the method: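 The read-out was p-Syk (Tyr525/526), measured by AlphaLISA in lysates of a stable HEK293/DAP12+TREM2 clone. Cells (10,000/well, plated the day before) received compound for 30 min at 37 °C. Dosing used 8 points in quadruplicate, top 100 μM with 1:6 dilution, 0.5% final DMSO.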
A general note: Bead proximity is the source of the signal in Alpha formats.

[1] abbreviates: HEK293, maximal response relative to reference agonist example 1B (remaining examples), read-out: Emax.

T1 sequence (Q9NZC2 19-230): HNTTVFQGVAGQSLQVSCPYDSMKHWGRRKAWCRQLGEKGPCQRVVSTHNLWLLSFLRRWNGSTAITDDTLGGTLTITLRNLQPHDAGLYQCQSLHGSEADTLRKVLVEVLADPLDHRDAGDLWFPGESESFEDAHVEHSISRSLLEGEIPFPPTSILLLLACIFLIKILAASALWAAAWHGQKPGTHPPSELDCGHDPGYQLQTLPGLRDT
T1 sequence (O43914 22-113 partner): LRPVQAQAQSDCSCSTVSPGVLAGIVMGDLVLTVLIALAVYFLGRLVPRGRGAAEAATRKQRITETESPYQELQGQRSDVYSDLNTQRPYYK

As to `Cc1nc2c(-c3ccc(Cl)cc3F)nc(N3CCO[C@H](c4cnn(C5CC5)c4)C3)cc2c(=O)n1C` (single isomer, unassigned) [Example 131A], the EC50 fell in the range of 1 to 10 nM. Further, the Emax under setting [1] was in the range of 75 to 110%.

As for `Cc1cc([C@H]2CN(c3cc4c(=O)n(C)c(C)nc4c(-c4ccc(C(F)F)nc4)n3)C[C@@H](C)O2)ccn1` (single isomer, unassigned) [Example 192B], the EC50 was in the range of 1 to 10 nM. In addition, the Emax under setting [1] is 75 to 110%.

Consider `Cc1cc([C@@H]2CN(c3cc4c(=O)n(C)c(C)nc4c(-c4cc(F)c(F)cc4F)n3)CC(C)(C)O2)ccn1` (single isomer, unassigned) [Example 160A], for which the EC50 was 1 to 10 nM. The Emax under setting [1] lay in the range of 75 to 110%.

Turning to `Cc1nc2c(-c3ccc(Cl)cc3F)nc([C@]34CCO[C@H](c5cnn(C6CC6)c5)[C@H]3C4)nc2c(=O)n1C` (single isomer, unassigned) [Example 116A], the EC50 was in the range of 100 to 1000 nM. The Emax under setting [1] is below 75%.

As to `C[C@@H]1CN(c2nc(-c3ccc(F)cc3F)c3nc(C(F)(F)F)n(C)c(=O)c3n2)C[C@H](c2cnn(C3CC3)c2)O1` (single isomer, unassigned) [Example 183B], the EC50 is below 1 nM. For the same molecule, the maximal response (Emax) under setting [1] is 75 to 110%.

Turning to `Cc1nc2c(-c3ccc(Cl)cc3F)nc(N3C[C@H](c4cnn(C)c4)OC(C)(C)C3)nc2c(=O)n1C` (single isomer, unassigned) [Example 89B], the concentration for a half-maximal effect (EC50) is 10 to 100 nM. The Emax under setting [1] was in the range of 75 to 110%.

As to `Cc1nc2c(-c3ccc(Cl)cc3F)nc(N3C[C@@H](c4cnn(C)c4)OC(F)(F)C3)nc2c(=O)n1C` (single isomer, unassigned) [Example 149A], the EC50 is below 1 nM. Besides, the Emax under setting [1] was in the range of 75 to 110%.

Turning to `Cc1nc2c(-c3ccc(Cl)cc3F)nc(N3CCOC(c4cn(C)cn4)C3)nc2c(=O)n1C` (centres unmarked) [Example 82, 8-(4-chloro-2-fluorophenyl)-2,3-dimethyl-6-(2-(1-methyl-1H-imidazol-4-yl)morpholino)pyrimido[5,4-d]pyrimidin-4(3H)-one], the concentration for a half-maximal effect (EC50) was above 1000 nM. Also, the Emax under setting [1] lay in the range of 75 to 110%.

On to `Cc1nc2c(C3CCC(C)CC3)nc(N3CCOC(c4cnn(C)c4)C3)nc2c(=O)n1C` (centres unmarked) [Example 12b, 2,3-dimethyl-6-(2-(1-methyl-1H-pyrazol-4-yl)morpholino)-8-((1r,4r)-4-methylcyclohexyl)pyrimido[5,4-d]pyrimidin-4 (3H)-one], for which the EC50 fell in the range of 100 to 1000 nM. In addition, the Emax entry (maximal response relative to reference agonist example 1B (remaining examples)) is “++ (75-110%)”.

Take `Cc1nc2c(-c3ccc(Cl)cc3F)nc(N3CCO[C@H](c4cnn(C)c4)C3)nc2c(=O)n1C` (single isomer, unassigned) [Example 1A]: the EC50 is 100 to 1000 nM. For the same molecule, where the note is “HEK293, maximal response relative to reference agonist human TREM2 MAB1828 (examples 1, 1A and 1B), read-out: Emax”, the Emax lay within 75 to 110%.

With `Cc1nc2c(-c3ccc(C(F)F)nc3)nc(N3C[C@@H](c4cnn(C5CC5)c4)O[C@@H](C)C3)cc2c(=O)n1C` (single isomer, unassigned) [Example 194A], the EC50 lay within 10 to 100 nM. For the same molecule, the Emax under setting [1] was 75 to 110%.

Take `Cc1nc2c(-c3ccc(Cl)cc3F)nc(N3CCOC(c4cnn(C)c4)C3)nc2c(=O)[nH]1` (centres unmarked) [Example 60, 8-(4-chloro-2-fluorophenyl)-2-methyl-6-(2-(1-methyl-1H-pyrazol-4-yl)morpholino)pyrimido[5,4-d]pyrimidin-4 (3H)-one]: the EC50 fell in the range of 100 to 1000 nM. Moreover, under setting [1], the Emax is below 75%.

For `Cc1nc2c(-c3ccc(C(F)(F)F)cc3F)nc(N3C[C@@H](c4cnn(C)c4)OC4(CCC4)C3)cc2c(=O)n1C` (single isomer, unassigned) [Example 143A], the EC50 was 1 to 10 nM. Moreover, the Emax under setting [1] lay in the range of 75 to 110%.

On to `Cc1cc([C@@H]2CN(c3nc(-c4cc(F)c(F)cc4F)c4nc(C(F)(F)F)n(C)c(=O)c4n3)CCO2)ccn1` (single isomer, unassigned) [Example 155A], for which the EC50 is below 1 nM. The Emax under setting [1] was in the range of 75 to 110%.

`Cc1nc2c(-c3cc(F)c(F)cc3F)nc(N3CCO[C@@H](c4cnn(C5CC5)c4)C3)cc2c(=O)n1C` (single isomer, unassigned) [Example 133B]: the EC50 is 100 to 1000 nM. Further, the Emax under setting [1] is below 75%.

In the case of `Cc1cc([C@@H]2CN(c3nc(-c4ccc(F)cc4F)c4nc(C)n(C)c(=O)c4n3)CC(C)(C)O2)ccn1` (single isomer, unassigned) [Example 170A], the EC50 lay within 100 to 1000 nM. For the same molecule, the Emax under setting [1] is below 75%.

On to `Cc1nc2c(-c3ccc(Cl)cc3F)nc(N3CCc4cncnc4CC3)nc2c(=O)n1C` [Example 83, 8-(4-chloro-2-fluorophenyl)-2,3-dimethyl-6-(5,6,8,9-tetrahydro-7H-pyrimido[4,5-d]azepin-7-yl)pyrimido[5,4-d]pyrimidin-4(3H)-one], for which the EC50 was above 1000 nM. In addition, the Emax under setting [1] is below 75%.

Regarding `Cc1nc2c(-c3cc(F)c(F)cc3F)nc([C@H]3CCO[C@@H](c4cnn(C5CC5)c4)C3)nc2c(=O)n1C` (single isomer, unassigned) [Example 97B], the EC50 was above 1000 nM. Besides, the Emax under setting [1] was below 75%.

Regarding `Cc1cc([C@@H]2CN(c3cc4c(=O)n(C)c(C)nc4c(-c4cc(F)c(F)cc4F)n3)CCO2)ccn1` (single isomer, unassigned) [Example 141A], the EC50 fell in the range of 10 to 100 nM. The Emax under setting [1] was 75 to 110%.

Consider `Cc1nc2c(-c3ccc(C(F)(F)F)nc3)nc([C@@H]3CCO[C@H](c4cnn(C5CC5)c4)C3)nc2c(=O)n1C` (single isomer, unassigned) [Example 98A], for which the EC50 is 10 to 100 nM. The maximal effect (Emax) under setting [1] was below 75%.

As for `Cc1nc2c(-c3ccc(C(F)(F)F)cc3F)nc(N3C[C@@H](c4cnn(C)c4)OC(C)(C)C3)nc2c(=O)n1C` (single isomer, unassigned) [Example 100A], the EC50 fell in the range of 10 to 100 nM. The Emax under setting [1] lay within 75 to 110%.

On to `Cc1nc2c(-c3ccc(Cl)cc3F)nc(N3CCN(C)C(c4cnn(C)c4)C3)nc2c(=O)n1C` (centres unmarked) [Example 29, 8-(4-chloro-2-fluorophenyl)-2,3-dimethyl-6-(4-methyl-3-(1-methyl-1H-pyrazol-4-yl)piperazin-1-yl)pyrimido[5,4-d]pyrimidin-4(3H)-one], for which the EC50 lay in the range of 100 to 1000 nM. Further, under setting [1], the Emax was below 75%.

Regarding `Cc1nc2c(-c3ccc(C(F)(F)F)nc3)nc(N3CCOC(c4cnn(C5CC5)c4)C3)nc2c(=O)n1C` (racemic) [Example 19, 6-(2-(1-cyclopropyl-1H-pyrazol-4-yl)morpholino)-2,3-dimethyl-8-(6-(trifluoromethyl)pyridin-3-yl)pyrimido[5,4-d]pyrimidin-4 (3H)-one], the half-maximal effective concentration (EC50) was in the range of 10 to 100 nM. Besides, under setting [1], the maximal effect (Emax) was below 75%.

Turning to `Cc1nc2c(-c3ccc(Cl)cc3F)nc(N3CCOC4(CCc5ccccc54)C3)nc2c(=O)n1C` (centres unmarked) [Example 85, 8-(4-chloro-2-fluorophenyl)-6-(2,3-dihydrospiro[indene-1,2′-morpholin]-4′-yl)-2,3-dimethylpyrimido[5,4-d]pyrimidin-4(3H)-one], the 50% effective concentration (EC50) was above 1000 nM. Also, the Emax under setting [1] was below 75%.

Turning to `Cc1cc([C@@H]2CN(c3cc4c(=O)n(C)c(C)nc4c(-c4ccc(C(F)F)nc4)n3)CC(C)(C)O2)ccn1` (single isomer, unassigned) [Example 180A], the EC50 is above 1000 nM. In addition, the Emax under setting [1] is below 75%.

Consider `Cc1cc([C@H]2CN(c3nc(-c4ccc(F)cc4F)c4nc(C)n(C)c(=O)c4n3)C[C@@H](C)O2)ccn1` (single isomer, unassigned) [Example 175B], for which the EC50 lay within 10 to 100 nM. For the same molecule, under setting [1], the Emax is 75 to 110%.

Take `Cc1cc([C@@H]2CN(c3nc(-c4cc(F)c(F)cc4F)c4nc(C)n(C)c(=O)c4n3)CCO2)ccn1` (single isomer, unassigned) [Example 123A]: the EC50 was 1 to 10 nM. For the same molecule, the maximal effect (Emax) under setting [1] is above 110%.

With `COCCn1c(C)nc2c(-c3ccc(Cl)cc3F)nc(N3CCOC(c4cnn(C)c4)C3)nc2c1=O` (centres unmarked) [Example 61, 8-(4-chloro-2-fluorophenyl)-3-(2-methoxyethyl)-2-methyl-6-(2-(1-methyl-1H-pyrazol-4-yl)morpholino)pyrimido[5,4-d]pyrimidin-4(3H)-one], the EC50 is 10 to 100 nM. In addition, the Emax under setting [1] was below 75%.

Consider `Cc1nc2c(-c3cc(F)c(F)cc3F)nc(N3C[C@@H](c4cnn(C)c4)OC(C)(C)C3)nc2c(=O)n1C` (single isomer, unassigned) [Example 101A], for which the EC50 is 10 to 100 nM. Further, the Emax under setting [1] is 75 to 110%.

With `Cn1c(C(F)(F)F)nc2c(-c3cc(F)c(F)cc3F)nc([C@@H]3CCO[C@H](c4cnn(C5CC5)c4)C3)nc2c1=O` (single isomer, unassigned) [Example 186A], the concentration giving a half-maximal response (EC50) fell in the range of 1 to 10 nM. The Emax under setting [1] fell in the range of 75 to 110%.

For `Cc1nc2c(-c3ccc(Cl)cc3F)nc(N3CCO[C@@H](c4cnn(C)c4)C3)cc2c(=O)n1C` (single isomer, unassigned) [Example 125A], the EC50 is 10 to 100 nM. Moreover, the Emax under setting [1] is 75 to 110%.

As for `Cc1nc2c(-c3ccc(C(F)(F)F)cc3F)cc([C@H]3CCO[C@@H](c4cnn(C5CC5)c4)C3)cc2c(=O)n1C` (single isomer, unassigned) [Example 118B], the concentration giving a half-maximal response (EC50) is above 1000 nM. Also, the Emax under setting [1] is below 75%.

As for `Cc1cc([C@H]2CN(c3cc4c(=O)n(C)c(C)nc4c(-c4ccc(C(F)(F)F)nc4)n3)CCO2)ccn1` (single isomer, unassigned) [Example 138B], the EC50 was in the range of 100 to 1000 nM. For the same molecule, under setting [1], the Emax was below 75%.

For the molecule `Cc1cc([C@@H]2CN(c3nc(-c4ccc(F)cc4F)c4nc(C)n(C)c(=O)c4n3)CC(F)(F)O2)ccn1` (single isomer, unassigned) [Example 169A], the EC50 was below 1 nM. Further, the Emax under setting [1] fell in the range of 75 to 110%.

As a reminder, the Emax is the maximal effect, on the per cent scale that the assay sets. In general, EC50 refers to the midpoint of the concentration-response curve.
